Laboratory results published in patent publication US8426345B2, “Method of drug design” (Alchemia Limited, priority 2005, dated 2013).

Biological target: T1, Human SST5 somatostatin receptor (Homo sapiens, UniProt P35346)
T1 construct: expressed in transfected cells; host or cells: HEK-293 EBNA cells (membranes)
Assay: Filter plate radio-ligand binding assay for SST5 receptor ([125I]SST-14 displacement)
Details: 3P library; for % SST5 radio-ligand binding displaced at conc 0.25: conc 0.25 μM; for % SST5 radio-ligand binding displaced at conc 1.0: conc 1.0 μM; for % SST5 radio-ligand binding displaced at conc 50: conc 50 μM; for % SST5 radio-ligand binding displaced at conc 250: conc 250 μM; for % SST5 radio-ligand binding displaced at conc 500: conc 500 μM

T1 sequence (P35346 whole entry): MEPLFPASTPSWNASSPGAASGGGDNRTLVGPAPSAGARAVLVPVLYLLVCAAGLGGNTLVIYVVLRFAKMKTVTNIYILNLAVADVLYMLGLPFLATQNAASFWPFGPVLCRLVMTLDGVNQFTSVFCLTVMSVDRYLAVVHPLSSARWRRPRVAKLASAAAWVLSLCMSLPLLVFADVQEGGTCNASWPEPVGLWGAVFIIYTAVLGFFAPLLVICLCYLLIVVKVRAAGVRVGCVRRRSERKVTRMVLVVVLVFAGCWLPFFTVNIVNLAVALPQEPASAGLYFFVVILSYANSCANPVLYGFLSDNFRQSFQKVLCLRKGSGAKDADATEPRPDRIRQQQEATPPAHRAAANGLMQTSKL

Structure (SMILES)	% SST5 radio-ligand binding displaced at conc 0.25	% SST5 radio-ligand binding displaced at conc 1.0	% SST5 radio-ligand binding displaced at conc 50	% SST5 radio-ligand binding displaced at conc 250	% SST5 radio-ligand binding displaced at conc 500
COC[C@H]1O[C@H](OCc2ccc3ccccc3c2)[C@H](NC(=O)CCCN)[C@@H](OCc2cccc(Cl)c2)[C@@H]1O [Compound 144]	+ (% SST5 radio-ligand binding displaced at cone (μM) 60>+>40%)	++ (% SST5 radio-ligand binding displaced at conc (μM) >60%)	–	–	–
COC[C@H]1O[C@H](OCc2ccc3ccccc3c2)[C@H](NC(=O)CCCN)[C@@H](OCc2cc(Cl)ccc2Cl)[C@@H]1O [Compound 145]	+ (% SST5 radio-ligand binding displaced at cone (μM) 60>+>40%)	++ (% SST5 radio-ligand binding displaced at conc (μM) >60%)	–	–	–
COC[C@H]1O[C@H](OCc2ccc3ccccc3c2)[C@H](NC(=O)CCCN)[C@@H](OCc2ccccc2Cl)[C@@H]1O [Compound 146]	− (% SST5 radio-ligand binding displaced at cone (μM) −<40%)	++ (% SST5 radio-ligand binding displaced at conc (μM) >60%)	–	–	–
COC[C@H]1O[C@H](OCc2ccc3ccccc3c2)[C@H](NC(=O)CCCN)[C@@H](OCc2cccc3cccnc23)[C@@H]1O [Compound 147]	+ (% SST5 radio-ligand binding displaced at cone (μM) 60>+>40%)	++ (% SST5 radio-ligand binding displaced at conc (μM) >60%)	–	–	–
COC[C@H]1O[C@H](OCc2ccc3ccccc3c2)[C@H](NC(=O)CCCN)[C@@H](OCc2nc3ccccc3s2)[C@@H]1O [Compound 148]	− (% SST5 radio-ligand binding displaced at cone (μM) −<40%)	− (% SST5 radio-ligand binding displaced at cone (μM) −<40%)	–	–	–
COC[C@H]1O[C@H](OCc2ccc3ccccc3c2)[C@H](NC(=O)CCCN)[C@@H](OCc2nccc3ccccc23)[C@@H]1O [Compound 149]	− (% SST5 radio-ligand binding displaced at cone (μM) −<40%)	+ (% SST5 radio-ligand binding displaced at cone (μM) 60>+>40%)	–	–	–
COC[C@H]1O[C@H](OCc2ccc3ccccc3c2)[C@H](NC(=O)CCCN)[C@@H](OCc2ccc(Cl)c(Cl)c2)[C@@H]1O [Compound 150]	++ (% SST5 radio-ligand binding displaced at conc (μM) >60%)	++ (% SST5 radio-ligand binding displaced at conc (μM) >60%)	–	–	–
COC[C@H]1O[C@H](OCc2ccc3ccccc3c2)[C@H](NC(=O)CCCN)[C@@H](OCc2cccc3ccccc23)[C@@H]1O [Compound 151]	+ (% SST5 radio-ligand binding displaced at cone (μM) 60>+>40%)	++ (% SST5 radio-ligand binding displaced at conc (μM) >60%)	–	–	–
COC[C@H]1O[C@H](OCc2ccc3ccccc3c2)[C@H](NC(=O)CCCN)[C@@H](OCc2ccc(Cl)cc2Cl)[C@@H]1O [Compound 152]	+ (% SST5 radio-ligand binding displaced at cone (μM) 60>+>40%)	++ (% SST5 radio-ligand binding displaced at conc (μM) >60%)	–	–	–
COC[C@H]1O[C@H](OCc2ccc3ccccc3c2)[C@H](NC(=O)CCCN)[C@@H](OCc2ccc3ccccc3n2)[C@@H]1O [Compound 153]	++ (% SST5 radio-ligand binding displaced at conc (μM) >60%)	++ (% SST5 radio-ligand binding displaced at conc (μM) >60%)	–	–	–
COC[C@H]1O[C@H](OCc2ccc3ccccc3c2)[C@H](NC(=O)CCCN)[C@@H](OCc2cccc(Cl)c2Cl)[C@@H]1O [Compound 154]	++ (% SST5 radio-ligand binding displaced at conc (μM) >60%)	++ (% SST5 radio-ligand binding displaced at conc (μM) >60%)	–	–	–
COC[C@H]1O[C@H](OCc2ccc3ccccc3c2)[C@H](NC(=O)CCCN)[C@@H](OCc2ccc(Oc3ccccc3)cc2)[C@@H]1O [Compound 155]	++ (% SST5 radio-ligand binding displaced at conc (μM) >60%)	++ (% SST5 radio-ligand binding displaced at conc (μM) >60%)	–	–	–
COC[C@H]1O[C@H](OCc2ccc(Cl)cc2)[C@H](NC(=O)CN)[C@@H](OC)[C@@H]1O [Compound 156]	–	–	− (% SST5 radio-ligand binding displaced at cone (μM) −<40%)	− (% SST5 radio-ligand binding displaced at cone (μM) −<40%)	− (% SST5 radio-ligand binding displaced at cone (μM) −<40%)
COC[C@H]1O[C@@H](OCc2ccc(Cl)cc2)[C@H](NC(=O)CN)[C@@H](OC)[C@@H]1O [Compound 157]	–	–	− (% SST5 radio-ligand binding displaced at cone (μM) −<40%)	− (% SST5 radio-ligand binding displaced at cone (μM) −<40%)	− (% SST5 radio-ligand binding displaced at cone (μM) −<40%)
COC[C@H]1O[C@H](OCc2ccc(Cl)cc2)[C@H](NC(=O)CN)[C@H](OC)[C@@H]1O [Compound 158]	–	–	− (% SST5 radio-ligand binding displaced at cone (μM) −<40%)	− (% SST5 radio-ligand binding displaced at cone (μM) −<40%)	− (% SST5 radio-ligand binding displaced at cone (μM) −<40%)
COC[C@H]1O[C@@H](OCc2ccc(Cl)cc2)[C@H](NC(=O)CN)[C@H](OC)[C@@H]1O [Compound 159]	–	–	− (% SST5 radio-ligand binding displaced at cone (μM) −<40%)	− (% SST5 radio-ligand binding displaced at cone (μM) −<40%)	− (% SST5 radio-ligand binding displaced at cone (μM) −<40%)
